Here are results for two compounds from paper PMC10958117, “G-site residue S67 is involved in the fungicide-degrading activity of a tau class glutathione S-transferase from Carica papaya” (The Journal of Biological Chemistry, 2024).

Series [1] addresses T1, tau class glutathione S-transferase from Carica papaya (TCpGST) (Carica papaya, UniProt O49821). The experiment in a line: HPLC degradation assay ([…] after […] h); S67A inactive. It is filed as biochemical. On the set-up: gene PGST1; full-length ORF (657 bp), C-terminal His6, pET-30a, E. coli BL21(DE3), Ni-NTA purified. Conditions: 120 min.
For series [2], the target named is T1, tau class glutathione S-transferase from Carica papaya (TCpGST). Described as above. It is filed as biochemical. The arrangement: gene PGST1. Conditions: 120 min.

Structures are written as SMILES.

T1 sequence (O49821 1-218): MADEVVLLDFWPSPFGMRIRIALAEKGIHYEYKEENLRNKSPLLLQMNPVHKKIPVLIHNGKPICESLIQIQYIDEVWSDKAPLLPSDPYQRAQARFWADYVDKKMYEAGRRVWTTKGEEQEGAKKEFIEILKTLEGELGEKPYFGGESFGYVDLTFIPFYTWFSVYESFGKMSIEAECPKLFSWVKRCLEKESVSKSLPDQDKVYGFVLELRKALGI

`N#Cc1c(Cl)c(Cl)c(Cl)c(C#N)c1Cl` [compound 11, chlorothalonil]: the “%” value in series [1] is 26%. As to `c1ccc2[nH]c(-c3cscn3)nc2c1` [compound 16, thiabendazole], in series [2], the “%” value worked out at 69%.
